From PMC8401933 (Molecules, 2021)

What was measured:
[1] = target: T1, RSK1(Kin.Dom.1-N-terminal) (Homo sapiens, UniProt Q15418); test: KINOMEscan binding; settings: read-out: Percent Control
T1 construct: RSK1(Kin.Dom.1-N-terminal); purchased Eurofins DiscoverX KINOMEscan

[2] = target: T2, FLT3(D835V) (Homo sapiens, UniProt P36888, D835V); test: KINOMEscan binding; settings: read-out: Percent Control
T2 construct: purchased Eurofins DiscoverX KINOMEscan

[3] = target: T3, DDR2 (Homo sapiens, UniProt Q16832); test: KINOMEscan binding; settings: read-out: Percent Control
T3 construct: purchased Eurofins DiscoverX KINOMEscan

[4] = target: T4, CSNK1E (Homo sapiens, UniProt P49674); test: KINOMEscan binding; settings: read-out: Percent Control
T4 construct: purchased Eurofins DiscoverX KINOMEscan

[5] = target: T5, ABL1(E255K)-phosphorylated (Homo sapiens, UniProt P00519, E255K); test: KINOMEscan binding; settings: read-out: Percent Control
T5 construct: purchased Eurofins DiscoverX KINOMEscan

[6] = target: T6, HIPK4 (Homo sapiens, UniProt Q8NE63); test: KINOMEscan binding; settings: read-out: Percent Control
T6 construct: purchased Eurofins DiscoverX KINOMEscan

[7] = target: T7, ANKK1 (Homo sapiens, UniProt Q8NFD2); test: KINOMEscan binding; settings: read-out: Percent Control
T7 construct: purchased Eurofins DiscoverX KINOMEscan

[8] = target: T8, PRKCI (Homo sapiens, UniProt P41743); test: KINOMEscan binding; settings: read-out: Percent Control
T8 construct: purchased Eurofins DiscoverX KINOMEscan

[9] = target: T9, TXK (Homo sapiens, UniProt P42681); test: KINOMEscan binding; settings: read-out: Percent Control
T9 construct: purchased Eurofins DiscoverX KINOMEscan

[10] = target: T10, NDR2 (Homo sapiens, UniProt Q9Y2H1); test: KINOMEscan binding; settings: read-out: Percent Control
T10 construct: purchased Eurofins DiscoverX KINOMEscan
T10 sequence (Q9Y2H1 whole entry): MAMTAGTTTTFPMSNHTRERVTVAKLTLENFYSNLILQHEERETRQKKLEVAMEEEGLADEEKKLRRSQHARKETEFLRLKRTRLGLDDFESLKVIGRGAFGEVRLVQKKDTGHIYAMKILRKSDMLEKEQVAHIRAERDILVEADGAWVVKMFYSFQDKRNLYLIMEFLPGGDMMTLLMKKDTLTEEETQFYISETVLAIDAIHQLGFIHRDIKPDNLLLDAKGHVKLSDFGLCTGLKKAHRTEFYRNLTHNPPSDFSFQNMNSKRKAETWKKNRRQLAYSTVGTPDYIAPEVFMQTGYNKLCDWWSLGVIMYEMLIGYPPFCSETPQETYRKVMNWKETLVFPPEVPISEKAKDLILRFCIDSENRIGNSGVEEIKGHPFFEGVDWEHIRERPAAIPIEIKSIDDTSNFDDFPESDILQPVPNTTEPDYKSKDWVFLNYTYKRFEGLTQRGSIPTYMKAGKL

[11] = target: T11, PIK3CA (Homo sapiens, UniProt P42336); test: KINOMEscan binding; settings: read-out: Percent Control
T11 construct: purchased Eurofins DiscoverX KINOMEscan

[12] = target: T12, ERK2 (Homo sapiens, UniProt P28482); test: KINOMEscan binding; settings: read-out: Percent Control
T12 construct: purchased Eurofins DiscoverX KINOMEscan
T12 sequence (P28482 whole entry): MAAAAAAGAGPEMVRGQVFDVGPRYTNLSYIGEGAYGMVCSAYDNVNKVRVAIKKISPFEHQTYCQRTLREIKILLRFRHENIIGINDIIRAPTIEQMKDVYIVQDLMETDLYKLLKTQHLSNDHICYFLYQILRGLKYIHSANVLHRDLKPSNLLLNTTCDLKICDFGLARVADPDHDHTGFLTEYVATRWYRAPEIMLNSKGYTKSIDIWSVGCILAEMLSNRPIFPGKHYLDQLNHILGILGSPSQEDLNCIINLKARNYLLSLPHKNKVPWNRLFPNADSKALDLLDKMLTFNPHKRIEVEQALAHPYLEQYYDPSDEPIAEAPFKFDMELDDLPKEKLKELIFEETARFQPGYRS

[13] = target: T13, PAK2 (Homo sapiens, UniProt Q13177); test: KINOMEscan binding; settings: read-out: Percent Control
T13 construct: purchased Eurofins DiscoverX KINOMEscan

[14] = target: T14, MAP3K15 (Homo sapiens, UniProt Q6ZN16); test: KINOMEscan binding; settings: read-out: Percent Control
T14 construct: purchased Eurofins DiscoverX KINOMEscan

[15] = target: T15, CTK (Homo sapiens, UniProt P42679); test: KINOMEscan binding; settings: read-out: Percent Control
T15 construct: purchased Eurofins DiscoverX KINOMEscan

[16] = target: T16, PKMYT1 (Homo sapiens, UniProt Q99640); test: KINOMEscan binding; settings: read-out: Percent Control
T16 construct: purchased Eurofins DiscoverX KINOMEscan

[17] = target: T17, NEK9 (Homo sapiens, UniProt Q8TD19); test: KINOMEscan binding; settings: read-out: Percent Control
T17 construct: purchased Eurofins DiscoverX KINOMEscan

[18] = target: T18, PIM2 (Homo sapiens, UniProt Q9P1W9); test: KINOMEscan binding; settings: read-out: Percent Control
T18 construct: purchased Eurofins DiscoverX KINOMEscan
T18 sequence (Q9P1W9 whole entry): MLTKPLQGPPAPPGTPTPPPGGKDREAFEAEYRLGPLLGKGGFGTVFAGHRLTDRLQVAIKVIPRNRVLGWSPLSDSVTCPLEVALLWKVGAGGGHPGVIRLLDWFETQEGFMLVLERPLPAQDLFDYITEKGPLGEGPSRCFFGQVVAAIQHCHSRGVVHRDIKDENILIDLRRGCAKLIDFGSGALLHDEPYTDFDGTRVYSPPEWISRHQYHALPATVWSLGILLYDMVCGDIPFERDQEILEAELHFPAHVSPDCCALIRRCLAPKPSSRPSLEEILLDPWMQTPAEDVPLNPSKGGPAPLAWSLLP

[19] = target: T19, MAP4K4 (Homo sapiens, UniProt O95819); test: KINOMEscan binding; settings: read-out: Percent Control
T19 construct: purchased Eurofins DiscoverX KINOMEscan
T19 sequence (O95819 whole entry): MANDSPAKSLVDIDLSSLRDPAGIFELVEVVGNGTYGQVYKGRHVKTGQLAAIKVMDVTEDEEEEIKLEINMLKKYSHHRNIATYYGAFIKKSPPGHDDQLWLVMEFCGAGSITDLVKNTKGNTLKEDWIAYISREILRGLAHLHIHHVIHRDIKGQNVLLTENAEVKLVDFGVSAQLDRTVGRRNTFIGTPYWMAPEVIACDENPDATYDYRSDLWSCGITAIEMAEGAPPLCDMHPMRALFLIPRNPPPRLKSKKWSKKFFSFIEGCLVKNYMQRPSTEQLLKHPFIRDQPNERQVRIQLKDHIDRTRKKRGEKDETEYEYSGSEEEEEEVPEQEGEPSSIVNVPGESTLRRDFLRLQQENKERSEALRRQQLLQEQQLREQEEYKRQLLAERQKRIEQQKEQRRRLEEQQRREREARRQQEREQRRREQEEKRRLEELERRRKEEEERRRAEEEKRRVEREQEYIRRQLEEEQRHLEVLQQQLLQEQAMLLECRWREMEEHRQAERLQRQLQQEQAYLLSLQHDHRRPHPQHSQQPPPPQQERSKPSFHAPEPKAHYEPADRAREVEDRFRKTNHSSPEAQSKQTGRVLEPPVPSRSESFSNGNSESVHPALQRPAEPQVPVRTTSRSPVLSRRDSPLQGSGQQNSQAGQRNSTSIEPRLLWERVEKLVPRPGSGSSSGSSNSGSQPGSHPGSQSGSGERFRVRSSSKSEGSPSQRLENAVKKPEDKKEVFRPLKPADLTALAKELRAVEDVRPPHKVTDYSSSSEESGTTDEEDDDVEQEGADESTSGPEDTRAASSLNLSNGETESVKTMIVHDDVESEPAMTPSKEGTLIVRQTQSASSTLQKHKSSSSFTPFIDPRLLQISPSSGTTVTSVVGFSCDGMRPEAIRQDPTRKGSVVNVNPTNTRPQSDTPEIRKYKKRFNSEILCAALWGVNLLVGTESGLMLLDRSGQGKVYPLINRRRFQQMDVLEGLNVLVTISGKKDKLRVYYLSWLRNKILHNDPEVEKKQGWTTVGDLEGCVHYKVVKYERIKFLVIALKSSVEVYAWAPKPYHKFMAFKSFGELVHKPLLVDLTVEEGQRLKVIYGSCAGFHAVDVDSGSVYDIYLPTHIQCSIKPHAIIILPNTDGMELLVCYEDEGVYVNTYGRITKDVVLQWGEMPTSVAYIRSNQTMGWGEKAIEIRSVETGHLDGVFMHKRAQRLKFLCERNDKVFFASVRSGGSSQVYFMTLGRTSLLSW

[20] = target: T20, MYLK2 (Homo sapiens, UniProt Q9H1R3); test: KINOMEscan binding; settings: read-out: Percent Control
T20 construct: purchased Eurofins DiscoverX KINOMEscan
T20 sequence (Q9H1R3 whole entry): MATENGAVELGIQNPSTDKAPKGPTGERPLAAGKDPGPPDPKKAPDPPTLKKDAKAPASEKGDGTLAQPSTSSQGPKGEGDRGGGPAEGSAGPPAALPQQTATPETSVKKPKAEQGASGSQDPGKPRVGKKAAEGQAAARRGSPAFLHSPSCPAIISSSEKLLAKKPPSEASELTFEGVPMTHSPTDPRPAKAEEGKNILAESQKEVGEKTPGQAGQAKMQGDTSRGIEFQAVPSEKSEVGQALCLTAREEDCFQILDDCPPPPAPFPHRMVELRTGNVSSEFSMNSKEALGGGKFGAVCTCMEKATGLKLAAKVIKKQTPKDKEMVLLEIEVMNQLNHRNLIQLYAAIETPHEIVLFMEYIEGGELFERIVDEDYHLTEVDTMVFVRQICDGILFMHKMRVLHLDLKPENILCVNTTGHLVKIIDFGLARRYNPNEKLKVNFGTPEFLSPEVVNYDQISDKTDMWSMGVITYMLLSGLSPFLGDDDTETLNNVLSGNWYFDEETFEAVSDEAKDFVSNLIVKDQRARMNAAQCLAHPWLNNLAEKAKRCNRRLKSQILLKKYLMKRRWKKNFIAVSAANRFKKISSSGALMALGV

[21] = target: T21, TNK1 (Homo sapiens, UniProt Q13470); test: KINOMEscan binding; settings: read-out: Percent Control
T21 construct: purchased Eurofins DiscoverX KINOMEscan

[22] = target: T22, RPS6KA4(Kin.Dom.2-C-terminal) (Homo sapiens, UniProt O75676); test: KINOMEscan binding; settings: read-out: Percent Control
T22 construct: RPS6KA4(Kin.Dom.2-C-terminal); purchased Eurofins DiscoverX KINOMEscan

[23] = target: T23, FAK (Homo sapiens, UniProt Q05397); test: KINOMEscan binding; settings: read-out: Percent Control
T23 construct: purchased Eurofins DiscoverX KINOMEscan

[24] = target: T24, MARK3 (Homo sapiens, UniProt P27448); test: KINOMEscan binding; settings: read-out: Percent Control
T24 construct: purchased Eurofins DiscoverX KINOMEscan

[25] = target: T25, ABL1(F317I)-phosphorylated (Homo sapiens, UniProt P00519, F317I); test: KINOMEscan binding; settings: read-out: Percent Control
T25 construct: purchased Eurofins DiscoverX KINOMEscan

[26] = target: T26, BRSK1 (Homo sapiens, UniProt Q8TDC3); test: KINOMEscan binding; settings: read-out: Percent Control
T26 construct: purchased Eurofins DiscoverX KINOMEscan
T26 sequence (Q8TDC3 whole entry): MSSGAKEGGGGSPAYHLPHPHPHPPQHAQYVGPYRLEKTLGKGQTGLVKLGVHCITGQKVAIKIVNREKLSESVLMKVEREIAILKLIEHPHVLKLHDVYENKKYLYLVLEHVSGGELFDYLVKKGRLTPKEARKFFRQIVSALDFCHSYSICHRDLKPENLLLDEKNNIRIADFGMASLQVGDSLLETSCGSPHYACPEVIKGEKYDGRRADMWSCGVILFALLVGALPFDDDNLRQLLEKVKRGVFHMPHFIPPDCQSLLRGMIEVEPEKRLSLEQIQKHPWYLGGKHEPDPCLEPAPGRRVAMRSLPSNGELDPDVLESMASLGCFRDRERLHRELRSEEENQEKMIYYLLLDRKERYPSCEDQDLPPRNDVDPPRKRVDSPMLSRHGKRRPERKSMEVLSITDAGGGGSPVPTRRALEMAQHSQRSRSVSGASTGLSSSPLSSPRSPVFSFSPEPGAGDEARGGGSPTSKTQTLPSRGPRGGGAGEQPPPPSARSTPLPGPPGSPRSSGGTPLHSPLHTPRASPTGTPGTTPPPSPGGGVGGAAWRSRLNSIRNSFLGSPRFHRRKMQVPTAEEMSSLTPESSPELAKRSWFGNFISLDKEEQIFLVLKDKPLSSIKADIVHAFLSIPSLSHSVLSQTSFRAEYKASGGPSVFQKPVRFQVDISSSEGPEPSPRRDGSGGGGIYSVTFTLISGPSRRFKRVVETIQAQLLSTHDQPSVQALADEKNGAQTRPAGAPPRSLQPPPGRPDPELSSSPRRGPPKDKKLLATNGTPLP

[27] = target: T27, PIK3CA(E545K) (Homo sapiens, UniProt P42336, E545K); test: KINOMEscan binding; settings: read-out: Percent Control
T27 construct: purchased Eurofins DiscoverX KINOMEscan

[28] = target: T28, ALK(L1196M) (Homo sapiens, UniProt Q9UM73, L1196M); test: KINOMEscan binding; settings: read-out: Percent Control
T28 construct: purchased Eurofins DiscoverX KINOMEscan

[29] = target: T29, HCK (Homo sapiens, UniProt P08631); test: KINOMEscan binding; settings: read-out: Percent Control
T29 construct: purchased Eurofins DiscoverX KINOMEscan

[30] = target: T30, CDK9 (Homo sapiens, UniProt P50750); test: KINOMEscan binding; settings: read-out: Percent Control
T30 construct: purchased Eurofins DiscoverX KINOMEscan

[31] = target: T31, PKN1 (Homo sapiens, UniProt Q16512); test: KINOMEscan binding; settings: read-out: Percent Control
T31 construct: purchased Eurofins DiscoverX KINOMEscan

[32] = target: T32, ERN1 (Homo sapiens, UniProt O75460); test: KINOMEscan binding; settings: read-out: Percent Control
T32 construct: purchased Eurofins DiscoverX KINOMEscan

[33] = target: T33, ACVR2A (Homo sapiens, UniProt P27037); test: KINOMEscan binding; settings: read-out: Percent Control
T33 construct: purchased Eurofins DiscoverX KINOMEscan

[34] = target: T34, ABL1(Q252H)-phosphorylated (Homo sapiens, UniProt P00519, Q252H); test: KINOMEscan binding; settings: read-out: Percent Control
T34 construct: purchased Eurofins DiscoverX KINOMEscan

[35] = target: T35, CAMK1 (Homo sapiens, UniProt Q14012); test: KINOMEscan binding; settings: read-out: Percent Control
T35 construct: purchased Eurofins DiscoverX KINOMEscan

[36] = target: T36, CDK4 (Homo sapiens, UniProt P11802); test: KINOMEscan binding; settings: read-out: Percent Control
T36 construct: purchased Eurofins DiscoverX KINOMEscan

[37] = target: T37, IKK-alpha (Homo sapiens, UniProt O15111); test: KINOMEscan binding; settings: read-out: Percent Control
T37 construct: purchased Eurofins DiscoverX KINOMEscan
T37 sequence (O15111 whole entry): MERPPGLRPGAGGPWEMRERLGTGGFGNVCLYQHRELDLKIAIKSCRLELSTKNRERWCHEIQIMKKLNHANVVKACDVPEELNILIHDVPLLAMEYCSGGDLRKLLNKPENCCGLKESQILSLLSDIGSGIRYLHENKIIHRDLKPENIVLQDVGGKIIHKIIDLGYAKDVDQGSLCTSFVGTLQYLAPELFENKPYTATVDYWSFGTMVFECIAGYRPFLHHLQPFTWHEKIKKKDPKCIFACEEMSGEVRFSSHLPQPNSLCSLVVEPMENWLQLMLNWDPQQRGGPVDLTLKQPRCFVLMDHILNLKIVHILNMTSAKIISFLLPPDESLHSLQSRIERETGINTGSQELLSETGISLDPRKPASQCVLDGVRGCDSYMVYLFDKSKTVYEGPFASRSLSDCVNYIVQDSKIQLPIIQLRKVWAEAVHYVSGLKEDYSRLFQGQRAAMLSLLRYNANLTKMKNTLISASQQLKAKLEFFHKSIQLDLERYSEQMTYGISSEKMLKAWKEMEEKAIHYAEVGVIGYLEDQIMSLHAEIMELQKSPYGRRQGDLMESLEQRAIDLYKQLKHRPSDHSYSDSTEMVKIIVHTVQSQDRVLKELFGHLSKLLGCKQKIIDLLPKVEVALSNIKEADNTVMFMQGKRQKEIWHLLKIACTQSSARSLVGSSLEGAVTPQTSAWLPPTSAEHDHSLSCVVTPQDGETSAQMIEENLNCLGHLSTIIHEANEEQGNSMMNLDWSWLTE

[38] = target: T38, LRRK2 (Homo sapiens, UniProt Q5S007); test: KINOMEscan binding; settings: read-out: Percent Control
T38 construct: purchased Eurofins DiscoverX KINOMEscan

[39] = target: T39, MEK4 (Homo sapiens, UniProt P45985); test: KINOMEscan binding; settings: read-out: Percent Control
T39 construct: purchased Eurofins DiscoverX KINOMEscan

[40] = target: T40, PAK6 (Homo sapiens, UniProt Q9NQU5); test: KINOMEscan binding; settings: read-out: Percent Control
T40 construct: purchased Eurofins DiscoverX KINOMEscan

[41] = target: T41, RPS6KA5(Kin.Dom.1-N-terminal) (Homo sapiens, UniProt O75582); test: KINOMEscan binding; settings: read-out: Percent Control
T41 construct: RPS6KA5(Kin.Dom.1-N-terminal); purchased Eurofins DiscoverX KINOMEscan

[42] = oral, rat model; cited from earlier work

T1 sequence (Q15418 1-391 limits assumed): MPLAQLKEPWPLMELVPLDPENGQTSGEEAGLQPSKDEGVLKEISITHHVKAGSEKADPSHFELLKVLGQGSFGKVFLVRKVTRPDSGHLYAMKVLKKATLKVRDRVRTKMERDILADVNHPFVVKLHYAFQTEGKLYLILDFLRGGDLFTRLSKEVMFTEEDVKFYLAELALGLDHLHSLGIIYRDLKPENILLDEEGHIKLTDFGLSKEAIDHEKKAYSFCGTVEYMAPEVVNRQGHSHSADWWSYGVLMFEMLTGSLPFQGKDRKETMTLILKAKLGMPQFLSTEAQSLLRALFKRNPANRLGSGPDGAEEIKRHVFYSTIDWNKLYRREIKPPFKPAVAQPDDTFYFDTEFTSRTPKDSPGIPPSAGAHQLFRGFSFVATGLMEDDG

CC(C)NC(=O)COc1cccc(-c2nc(Nc3ccc4[nH]ncc4c3)c3ccccc3n2)c1 [KD025, 2-(3-(4-((1H-indazol-5-yl)amino)quinazolin-2-yl)phenoxy)-N-isopropylacetamide] gave a remaining binding at 10 µM [1] of 7.8%, a remaining binding at 10 µM [2] of 23% and a remaining binding at 10 µM [3] of 45%. It also gave a remaining binding at 10 µM [4] of 61%, a remaining binding at 10 µM [5] of 67% and a remaining binding at 10 µM [6] of 69%. For the same compound, the remaining binding at 10 µM [7] was 72%, the remaining binding at 10 µM [8] was 76% and the remaining binding at 10 µM [9] was 76%. It also gave a remaining binding at 10 µM [10] of 77%, a remaining binding at 10 µM [11] of 77% and a remaining binding at 10 µM [12] of 79%. The remaining binding at 10 µM [13] was 79%, the remaining binding at 10 µM [14] was 82% and the remaining binding at 10 µM [15] was 83%. The remaining binding at 10 µM [16] was 83%, the remaining binding at 10 µM [17] was 85% and the remaining binding at 10 µM [18] was 85%. It also gave a remaining binding at 10 µM [19] of 87%, a remaining binding at 10 µM [20] of 87% and a remaining binding at 10 µM [21] of 88%. The remaining binding at 10 µM [22] was 91%, the remaining binding at 10 µM [23] was 92% and the remaining binding at 10 µM [24] was 92%. It also gave a remaining binding at 10 µM [25] of 93%, a remaining binding at 10 µM [26] of 93% and a remaining binding at 10 µM [27] of 94%. It also gave a remaining binding at 10 µM [28] of 95%, a remaining binding at 10 µM [29] of 95% and a remaining binding at 10 µM [30] of 96%. For the same compound, the remaining binding at 10 µM [31] was 97%, the remaining binding at 10 µM [32] was 98% and the remaining binding at 10 µM [33] was 99%. For the same compound, the remaining binding at 10 µM [34] was 100%, the remaining binding at 10 µM [35] was 100% and the remaining binding at 10 µM [36] was 100%. The remaining binding at 10 µM [37] was 100%, the remaining binding at 10 µM [38] was 100% and the remaining binding at 10 µM [39] was 100%. For the same compound, the remaining binding at 10 µM [40] was 100%, the remaining binding at 10 µM [41] was 100% and the absolute bioavailability [42] was 37%.
